Among the data in US3994885A, “Process for etherifying β-lactam antibiotics” (Eli Lilly and Company, priority 1975, dated 1976) are MIC and zone of inhibition values, retold here.

SMILES strings stand for the structures. ≈ marks a conversion by molar mass, not a printed value. Bounds are passed on as bounds.

Test [1] concerns Penicillin Resistant Staphylococcus aureus V32. In words: Gradient Plate MIC vs penicillin resistant Staphylococcus aureus, isolate V32.
A further test deals with Aerobacter aerogenes. In words: Gradient Plate MIC vs gram-negative microorganisms. Conditions: Klebsiella aerogenes.
Test [2] deals with Escherichia coli. Briefly: Gradient Plate MIC vs gram-negative microorganisms.
The test system of test [3] is Penicillin Resistant Staphylococcus aureus X400. In words: Gradient Plate MIC vs penicillin resistant Staphylococcus aureus, isolate X400.
The subject of another test is Pseudomonas aeruginosa. In words: Gradient Plate MIC vs gram-negative microorganisms.
The next test concerns Salmonella heidelberg. In words: Gradient Plate MIC vs gram-negative microorganisms. The conditions noted are these: Salmonella enterica.
The next test has as its system Shigella sp. Briefly: Gradient Plate MIC vs gram-negative microorganisms.
Test [4] deals with Klebsiella pneumoniae. Briefly: Gradient Plate MIC vs gram-negative microorganisms.
The subject of test [5] is Penicillin Resistant Staphylococcus aureus V84. In words: Gradient Plate MIC vs penicillin resistant Staphylococcus aureus, isolate V84.
For test [6], the system named is Penicillin Resistant Staphylococcus aureus V41. Briefly: Gradient Plate MIC vs penicillin resistant Staphylococcus aureus, isolate V41.
Test [7] has as its system Penicillin Resistant Staphylococcus aureus X1.1. Briefly: Gradient Plate MIC vs penicillin resistant Staphylococcus aureus, isolate X1.1.
For test [8], the system named is Serratia marcescens. Briefly: Gradient Plate MIC vs gram-negative microorganisms.
Another test has as its system Bacillus subtilis. In words: In vitro antibiotic spectrum, disc-plate method. In kind it is cell-based. Conditions: read-out: Diameter of Zone of Inhibition; for zone of inhibition at 500 µg/mL: concentration 0.5 mg/ml (ditto).
The test system of test [9] is Klebsiella pneumoniae. In words: In vitro antibiotic spectrum, disc-plate method. In kind it is cell-based. The conditions noted are these: read-out: Diameter of Zone of Inhibition; for zone of inhibition at 500 µg/mL: concentration 0.5 mg/ml (ditto).
A further test has as its system Mycobacterium avium. In words: In vitro antibiotic spectrum, disc-plate method. In kind it is cell-based. The conditions noted are these: read-out: Diameter of Zone of Inhibition.
For a further test, the system named is Salmonella gallinarum. In words: In vitro antibiotic spectrum, disc-plate method. In kind it is cell-based. Conditions: Salmonella enterica, read-out: Diameter of Zone of Inhibition; for zone of inhibition at 500 µg/mL: concentration 0.5 mg/ml (ditto). The source says: In the following Table III the antibiotic activity of the compounds of the invention is further illustrated by the activity shown for representative compounds as determined by the standard disc-plate method.

Another test concerns Staphylococcus aureus. In words: In vitro antibiotic spectrum, disc-plate method. In kind it is cell-based. Conditions: read-out: Diameter of Zone of Inhibition; for zone of inhibition at 500 µg/mL: concentration 0.5 mg/ml.
The next test has as its system Sarcina lutea. In words: In vitro antibiotic spectrum, disc-plate method. In kind it is cell-based. The conditions noted are these: Micrococcus luteus, read-out: Diameter of Zone of Inhibition; for zone of inhibition at 500 µg/mL: concentration 0.5 mg/ml (ditto).
Another test deals with Pseudomonas solanacearum. In words: microbe, parasite or virus in culture. In kind it is cell-based. Conditions: Ralstonia solanacearum, read-out: Diameter of Zone of Inhibition.
The test system of the next test is Proteus vulgaris. In words: In vitro antibiotic spectrum, disc-plate method. In kind it is cell-based. The conditions noted are these: read-out: Diameter of Zone of Inhibition; for zone of inhibition at 500 µg/mL: concentration 0.5 mg/ml.
Test [10] has as its system Escherichia coli. In words: In vitro antibiotic spectrum, disc-plate method. In kind it is cell-based. Conditions: read-out: Diameter of Zone of Inhibition; for zone of inhibition at 500 µg/mL: concentration 0.5 mg/ml (ditto).
The test system of test [11] is Serratia marcescens. Briefly: In vitro antibiotic spectrum, disc-plate method. The conditions noted are these: read-out: Diameter of Zone of Inhibition; for zone of inhibition at 500 µg/mL: concentration 0.5 mg/ml (ditto). In kind it is cell-based.
Where [12] appears, read: concentration 0.1 mg/ml (ditto).

As a reminder, the MIC is the lowest concentration that inhibits growth of the organism. Take `COC1(NC(=O)C(O)c2ccccc2)C(=O)N2C(C(=O)O)=C(CSc3nnnn3C)CS[C@@H]21` (stereo partly shown) [A, 7-methoxy-7-mandelamido-3-(1-methyl-1H-tetrazole-5-ylthiomethyl)-3-cephem-4-carboxylic acid]: the MIC in test [1] (NS = absence of serum) was determined as 4.5 µg/mL (≈ 9.14 µM); in test [1] (S = presence of serum), 7.6 µg/mL; against Aerobacter aerogenes it was 0.7 µg/mL (≈ 1.42 µM); against Escherichia coli [2], 2.5 µg/mL (≈ 5.08 µM); in [3] (NS = absence of serum) it was 16.6 µg/mL (≈ 33.7 µM); in [3] (S = presence of serum) it was 15.4 µg/mL. Further, the MIC was greater than 200 µg/mL in the test with Pseudomonas aeruginosa; 0.6 µg/mL (≈ 1.22 µM) in the test with Salmonella heidelberg; 2 µg/mL (≈ 4.06 µM) against Shigella sp.; 0.6 µg/mL (≈ 1.22 µM) with Klebsiella pneumoniae [4]; 3.1 µg/mL (≈ 6.29 µM) in [5] (NS = absence of serum); 2 µg/mL in test [5] (S = presence of serum). In addition, the MIC in test [6] (NS = absence of serum) was 4.2 µg/mL (≈ 8.53 µM); in [6] (S = presence of serum), 6.7 µg/mL; in test [7] (NS = absence of serum), 0.5 µg/mL (≈ 1.02 µM); in test [7] (S = presence of serum), less than 0.1 µg/mL; in the test with Serratia marcescens [8], 3.4 µg/mL (≈ 6.9 µM).

As to `COC1(NC(=O)Cc2cccs2)C(=O)N2C(C(=O)O)=C(CSc3nnnn3C)CS[C@@H]21` (stereo partly shown) [B, 7-methoxy-7-[2-(2-thienyl)acetamido]-3-(1-methyl-1H-tetrazol-5-ylthiomethyl)-3-cephem-4-carboxylic acid], the minimal inhibitory concentration (MIC) is 1.8 µg/mL (≈ 3.73 µM) in test [1] (NS = absence of serum); 2 µg/mL in test [1] (S = presence of serum); 3.5 µg/mL (≈ 7.25 µM) against Aerobacter aerogenes; 7.9 µg/mL (≈ 16.4 µM) with Escherichia coli [2]; 10 µg/mL (≈ 20.7 µM) in test [3] (NS = absence of serum); 9.5 µg/mL in [3] (S = presence of serum). Further, the MIC is greater than 200 µg/mL in the test with Pseudomonas aeruginosa; 0.9 µg/mL (≈ 1.87 µM) in the test on Salmonella heidelberg; 6.6 µg/mL (≈ 13.7 µM) against Shigella sp.; 0.5 µg/mL (≈ 1.04 µM) against Klebsiella pneumoniae [4]; 0.6 µg/mL (≈ 1.24 µM) in test [5] (NS = absence of serum); 1 µg/mL in [5] (S = presence of serum). Also, the MIC in test [6] (NS = absence of serum) was determined as 1.5 µg/mL (≈ 3.11 µM); in test [6] (S = presence of serum), 1.1 µg/mL; in [7] (NS = absence of serum), 0.4 µg/mL (≈ 0.829 µM); in test [7] (S = presence of serum), 0.5 µg/mL; against Serratia marcescens [8], 5.4 µg/mL (≈ 11.2 µM).

For orientation: zone of inhibition means the size of the clear area around the sample on an inoculated plate. On to `COC1(NC(=O)Cn2cnnn2)C(=O)N2C(C(=O)O)=C(CSc3nnc(C)s3)CS[C@@H]21` (stereo partly shown) [C, 7-[2-(1-tetrazolyl)acetamido]-7-methoxy-3-(5-methyl-1,3,4-thiadiazol-2-ylthiomethyl)-3-cephem-4-carboxylic acid], for which the zone of inhibition at 500 µg/mL in the test with Bacillus subtilis is 25 mm; with Klebsiella pneumoniae [9], 19 mm; in the test with Mycobacterium avium (concentration 0.5 mg/ml (ditto)), 10 mm; in the test with Salmonella gallinarum, 26 mm; with Staphylococcus aureus it was 24 mm; in the test with Sarcina lutea it was 23 mm. Also, the zone of inhibition at 500 µg/mL in the test on Pseudomonas solanacearum amounted to 16 mm; in the test with Proteus vulgaris it was 21 mm; in the test with Escherichia coli [10], 23 mm; in the test on Serratia marcescens [11], 19 mm.

In the case of `COC1(NC(=O)Cn2cnnn2)C(=O)N2C(C(=O)O)=C(COC(C)=O)CSC21` (stereo not shown) [D, 7-[2-(1-Tetrazolyl)acetamido]:7:methoxy-3-acetoxymethyl-3-cephem-4-carboxylic acid], the zone of inhibition at 500 µg/mL with Bacillus subtilis was 24 mm; with Klebsiella pneumoniae [9], 17 mm; in the test with Salmonella gallinarum, 25 mm; in the test with Staphylococcus aureus it was 24 mm; with Sarcina lutea, 23 mm; with Pseudomonas solanacearum, 23 mm. Further, the zone of inhibition at 500 µg/mL in the test with Proteus vulgaris was found to be 18 mm; with Escherichia coli [10], 20 mm; in the test on Serratia marcescens [11] it was 17 mm. Besides, the zone of inhibition at 5000 µg/mL in the test with Mycobacterium avium (concentration 5.0 mg/ml) stood at 20 mm.

As to `COC1(NC(=O)C(O)c2ccccc2)C(=O)N2C(C(=O)O)=C(CSc3nnc(C)s3)CS[C@@H]21` (stereo partly shown) [E, 7-methoxy-7-mandelamido-3-(5-methyl-1,3,4-thiadiazol-2-ylthiomethyl)-3-cephem-4-carboxylic acid], the zone of inhibition at 100 µg/mL in the test with Bacillus subtilis (setting [12]) turned out to be 22 mm; in the test on Klebsiella pneumoniae [9] (setting [12]) it was 16 mm; in the test on Staphylococcus aureus (concentration 0.1 mg/ml), 25 mm; in the test with Sarcina lutea (setting [12]) it was 24 mm; in the test with Proteus vulgaris (concentration 0.1 mg/ml) it was 18 mm; in the test on Escherichia coli [10] (concentration 0.1 mg/ml), 22 mm. Besides, the zone of inhibition at 1000 µg/mL in the test with Mycobacterium avium (concentration 1.0 mg/ml) worked out at 15 mm; in the test on Salmonella gallinarum (concentration 1.0 mg/ml), 20 mm; in the test on Pseudomonas solanacearum it was 16 mm; in the test on Serratia marcescens [11] (concentration 1.0 mg/ml), 18 mm.
